Source: the Kinase Knowledgebase extract (Sharma et al. 2016)

These compounds were tested against CDK2 (UniProt P24941) (assay: Enzyme Assay).

IC50 [µM] | SMILES
< 20 | CCSc1cc(=O)c2c(O)cc(OC)c([C@H]3CCN(C)C[C@H]3O)c2o1
< 20 | CN1CC[C@H](c2c(O)cc(O)c3c(=O)cc(Oc4ccccc4)oc23)[C@H](O)C1
< 20 | CCSc1cc(=O)c2c(O)cc(O)c([C@H]3CCN(C)C[C@H]3O)c2o1
< 20 | CC(=O)NCCSc1cc(=O)c2c(O)cc(O)c([C@H]3CCN(C)C[C@H]3O)c2o1
< 20 | COc1ccc(CSc2cc(=O)c3c(O)cc(O)c(C4CCN(C)CC4O)c3o2)cc1 (configuration not stated)
< 20 | CN1CCC(c2c(O)cc(O)c3c(=O)cc(SCc4ccc(C(C)(C)C)cc4)oc23)C(O)C1 (configuration not stated)
< 20 | CN1CC[C@H](c2c(O)cc(O)c3c(=O)cc(Sc4ccccc4)oc23)[C@H](O)C1
< 20 | CN1CC[C@H](c2c(O)cc(O)c3c(=O)cc(Sc4ccccc4Cl)oc23)[C@H](O)C1
< 20 | CCCCSc1cc(=O)c2c(O)cc(O)c([C@H]3CCN(C)C[C@H]3O)c2o1
< 20 | CN1CCC(c2c(O)cc(O)c3c(=O)cc(Sc4ccc(OC(F)(F)F)cc4)oc23)C(O)C1 (configuration not stated)
< 20 | CN1CCC(c2c(O)cc(O)c3c(=O)cc(Sc4ccccc4Cl)oc23)C(O)C1 (configuration not stated)
< 20 | COc1ccc(Sc2cc(=O)c3c(O)cc(O)c([C@H]4CCN(C)C[C@H]4O)c3o2)cc1
< 20 | CCc1ccc(Sc2cc(=O)c3c(O)cc(O)c(C4CCN(C)CC4O)c3o2)cc1 (configuration not stated)
< 20 | CN1CC[C@H](c2c(O)cc(O)c3c(=O)cc(SCc4ccccc4)oc23)[C@H](O)C1
< 20 | COC(=O)CCSc1cc(=O)c2c(O)cc(O)c([C@H]3CCN(C)C[C@H]3O)c2o1
< 20 | COc1ccc(CSc2cc(=O)c3c(O)cc(O)c([C@H]4CCN(C)C[C@H]4O)c3o2)cc1
< 20 | CN1CCC(c2c(O)cc(O)c3c(=O)cc(SCCO)oc23)C(O)C1 (configuration not stated)
< 20 | COc1ccc(Sc2cc(=O)c3c(O)cc(O)c(C4CCN(C)CC4O)c3o2)cc1 (configuration not stated)
< 20 | CN1CC[C@H](c2c(O)cc(O)c3c(=O)cc(SCCO)oc23)[C@H](O)C1
< 20 | CN1CCC(c2c(O)cc(O)c3c(=O)cc(Sc4ccc(C(C)(C)C)cc4)oc23)C(O)C1 (configuration not stated)
< 20 | CC(=O)NCCSc1cc(=O)c2c(O)cc(O)c(C3CCN(C)CC3O)c2o1 (configuration not stated)
< 20 | Cc1ccc(Sc2cc(=O)c3c(O)cc(O)c(C4CCN(C)CC4O)c3o2)cc1C (configuration not stated)
